Experimental findings from patent publication US9629847B2, “Compositions and methods for treating symptoms of inflammatory related conditions using a combination of an antihistamine and a stimulant” (priority 2011, dated 2017) are described below.

For the data set, the system named is TPA induction of neutrophil MPO activity. The experiment in a line: Systemic effect: MPO activity in contralateral vehicle-treated ear after topical application (TPA model). From the text: These include dexamethasone, a steroid, and indomethasone, a non-steroid anti-inflammatory drug, which targets cycloxygenases.

For `C[C@@H]1C[C@H]2[C@@H]3CCC4=CC(=O)C=C[C@]4(C)[C@@]3(F)[C@@H](O)C[C@]2(C)[C@@]1(O)C(=O)CO` [dexamethasone], the “effect on MPO activity of contralateral vehicle-treated ear (systemic effect)” value (mouse, in vivo) is “increasing inhibition of MPO activity”.
In the case of `COc1ccc2c(c1)c(CC(=O)O)c(C)n2C(=O)c1ccc(Cl)cc1` [indomethasone], for the setting “topical, increasing concentration”, the “effect on MPO activity of contralateral vehicle-treated ear (systemic effect)” value was “increasing inhibition of MPO activity”.
